Assay [1] relates to Androstenedione-Induced Uterus Growth. Put plainly: Influence on androstenedione-induced uterus growth in infantile rats (Test b). The assay is classed as in vivo, rat. Particulars: 3 days; for Uterus Weight: infantile female rats; for Inhibition in % (of uterus growth, based on the androstenedione group): vehicle basic value deducted. The protocol: (§1) The following compounds are examined as representative:
Influence on Androstenedione-Induced Uterus Growth in Infantile Rats
Infantile female rats receive once daily the compound to be tested in combination with androstenedione over a period of three days. One group receives only androstenedione, and a further group only the vehicle. One day after the last treatment, the animals are sacrificed by decapitation and exsanguination, and the fresh uterus weights (without content) are determined. The uterus weights are calculated for mg/100 g body weight. The average value and standard deviation are calculated for each group. Variance analysis is used to check the significances of the differences with respect to the control group (androstenedione group and, respectively, vehicle group). Furthermore, the percentage inhibition of uterus growth is determined, based on the androstenedione group. In this determination, the uterus weight of the vehicle group (basic value) is deducted from the corresponding weight of the androstenedione group. The individual dosage groups, after subtracting the basic value, are based on the thus-obtained value.

In another assay the target is T1, aromatase (Homo sapiens, UniProt P11511).
T1 construct: microsomes obtained from human placenta; from tissue; host or cells: human placenta (microsomes)
T1 sequence (P11511 1-503): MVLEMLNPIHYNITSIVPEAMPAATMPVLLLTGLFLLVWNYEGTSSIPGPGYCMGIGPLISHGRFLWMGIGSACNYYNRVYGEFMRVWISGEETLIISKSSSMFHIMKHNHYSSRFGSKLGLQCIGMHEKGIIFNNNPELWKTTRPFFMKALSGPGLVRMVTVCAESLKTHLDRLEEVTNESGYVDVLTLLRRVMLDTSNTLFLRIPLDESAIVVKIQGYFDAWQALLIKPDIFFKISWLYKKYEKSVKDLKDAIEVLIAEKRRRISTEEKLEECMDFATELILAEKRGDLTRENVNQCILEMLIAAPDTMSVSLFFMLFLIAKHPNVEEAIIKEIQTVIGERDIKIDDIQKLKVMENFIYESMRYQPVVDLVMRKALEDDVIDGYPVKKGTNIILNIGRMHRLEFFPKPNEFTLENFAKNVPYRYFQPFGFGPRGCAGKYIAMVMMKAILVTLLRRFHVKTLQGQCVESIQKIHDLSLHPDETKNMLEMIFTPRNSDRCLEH
Put plainly: Aromatase inhibition in human placenta (Test a): microsomes, release of 3H2O from [1β-3H]-androstenedione, Ki by Dixon plot. The class given is biochemical. How it is done: as §1
Aromatase Inhibition in Human Placenta
The abilities of the compounds of inhibiting the enzyme system of aromatase is tested on microsomes obtained from human placenta.

Where [2] appears, read: compound + AD, 0.2 + 30 mg/kg/day, hydrochloride, 30 mg/kg/day.
The mark [3] stands for this setting: compound + AD, 2.0 + 30 mg/kg/day.
[4] abbreviates: human placenta microsomes, [1β-3H]-androstenedione substrate, 4-OH-androstenedione as reference compound, read-out: Ki, Aromatase.
Where [5] appears, read: compound + AD, 0.2 + 30 mg/kg/day.

Where “and” joins values, the source holds several entries; their conditions need not be identical. Equal entries are not always repeated. Structures can show the parent of a compound that is named as a salt. Where two headings read alike, the source gives them in different places.

For the compound `N#Cc1ccc(C2CCCc3cncn32)cc1` (racemic) [D, 5-(p-cyanophenyl)-5,6,7,8tetrahydroimidazo[-1,5a]pyridine, hydrochloride, reference compound], in assay [1] (setting [2]), the “Uterus Weight” value was 69.9 ± 6.6 mg/100 g BW and 83.2 ± 6.9 mg/100 g BW; the “Inhibition in % (of uterus growth, based on the androstenedione group)” value (shortened to “Inhibition in %”) is 84% and 86%.
Broadly, the Ki is the equilibrium dissociation constant of an inhibitor or competing ligand from its target. As for `C[C@]12CCC(=O)C(O)=C1CC[C@@H]1[C@@H]2CC[C@]2(C)C(=O)CC[C@@H]12` [4-OH-Androstenedione, reference compound], on aromatase (Ki, Aromatase), the Ki was 62 nM and 41 nM.
Take `C[C@]12CCC(=O)C=C1CC[C@@H]1[C@@H]2CC[C@]2(C)C(=O)CC[C@@H]12` [Androstenedione, reference compound]: the “Uterus Weight” value in assay [1] (androstenedione (AD) alone 30 mg/kg/day) is 213.6 ± 32.4 mg/100 g BW and 183.5 ± 22.7 mg/100 g BW.
As for `N#Cc1ccc(C(=C2CCCC2)n2ccnc2)cc1` [C, 4-[1-Cyclopentylidene-1-(1-imidazolyl)methyl]benzonitrile], in assay [1] (setting [3]), the “Uterus Weight” value came to 69.2 ± 5.7 mg/100 g BW and the “Inhibition in %” value amounted to 85%.
On to `Cl.N#Cc1ccc(C(=C2CCCCC2)n2ccnc2)cc1` [Compound A, 4-[1-Cyclohexylidene-1-(1-imidazolyl)methyl]benzonitrile, hydrochloride], for which the Ki on aromatase (setting [4]) is 0.19 nM. In addition, in assay [1] (setting [5]), the “Uterus Weight” value was 108.2 ± 11.9 mg/100 g BW and the “Inhibition in %” value was determined as 69%. Moreover, in assay [1] (setting [3]), the “Uterus Weight” value was determined as 100.1 ± 18.8 mg/100 g BW and the “Inhibition in %” value is recorded as 74%.
In the case of `N#Cc1ccc(C(=C2CCCCC2)n2ccnc2)cc1` [Compound B, 4-[1-Cyclohexylidene-1-(1-imidazolyl)methyl]benzonitrile], the Ki at aromatase (setting [4]) came to 0.48 nM. In assay [1] (setting [3]), the “Uterus Weight” value stood at 72.5 ± 10.3 mg/100 g BW and the “Inhibition in %” value was 82%.
